Data reported in patent publication US12679801B2, “Amino lipid and preparation method and application thereof” (Shenzhen MagicRNA Biotechnology Co., Ltd., priority 2022, dated 2026).

Assays:
HeLa cells = assay: In-vitro evaluation of E7C71A9, Compound A, B, C as Luc-mRNA vector (Embodiment 27, Table 14); assay type: cell-based; conditions: Luc-mRNA 100 ng/well, 16-20 h, relative to Lipofectamine3000, lipid:DSPC:cholesterol:PEG2000-DMG 43:10.5:45:1.5
Source text: • Cell line: HeLa cell line • Culture medium: 1640 […] supplemented with 10% fetal calf serum • Screening form: 96-well plate cell transfection • Detection: fluorescence intensity detection by a multifunctional microplate reader. According to manufacturer's instructions, Lipofectamine3000 was used as a positive control group. • Method: a pipette was used for sample addition. The shown content is the content of a single well of a 96-well plate.
1. Synthesis of E7C71A9, Compound A, Compound B, and Compound C was performed as described above. And these four ionizable amino lipid compounds were respectively mixed with DSPC, cholesterol and PEG2000-DMG into absolute ethyl alcohol. according to a mole ratio of 43:10.5:45:1.5, The Luc-mRNA was dissolved into a sodium acetate buffer solution ([…], pH=5.0). The mixed lipid solution was taken out by a pipette, and was added into the Luc-mRNA solution to be sufficiently mixed. A proportion ratio of the ethyl alcohol solution to the sodium acetate buffer solution ([…], pH=5.0) was controlled to be 1:3, and a nanoparticle solution was prepared. A mass ratio of the amino lipid compound to luciferase mRNA (Luc mRNA) was about 10:1, and the mRNA consumption in each well was 100 ng.
2. After the lipid nanoparticle solution was incubated for 30 min at room temperature, 100 μL of fresh resuspended HeLa cells (1×10^4 cells) were added into each well of a 96-well all-white ELISA plate. Then, the lipid nanoparticle solution was added into the 96-well plate (10 μL for each well) by a pipette. The solution was placed into a 37° C. incubator containing 5% CO2 to be incubated.
3. After 16 h to 20 h of cell initial transfection, a substrate ONE-Glo™ Luciferase was added into cells at 100 μL/well, and after 2 min, detection was performed by a multifunctional or multimode microplate reader.
4. The relative transfection efficiency was calculated as follows: Relative transfection efficiency (%)=fluorescence intensity of LNP/fluorescence intensity of Lipofectamine3000×100%.

BMDC primary cells [1] = assay: Luc mRNA LNP transfection of the four amino lipids on BMDC primary cells (Embodiment 28, Table 15); assay type: cell-based, C57BL/6 mice; conditions: Luc mRNA LNP 10 μL per well, 16 h, ONE-Glo Luciferase
Description: Preparation method: the same as that described above.
Animal preparation: 6-week-old female C57BL/6 mice with the body weight about 20 g were selected. The feeding environment was an SPF stage feeding room. Animal tests were strictly performed according to the guide of the national health institute and the animal ethics requirements.
Cell acquisition: C57BL/6 mice were killed through cervical dislocation, and were soaked for 5 min in 75% ethyl alcohol. Dissection was performed to obtain thigh and calf tibiae of the mice. Attached muscles were removed to expose sclerotin. Then, bone marrow in tibiae was blown out by using a 1 mL injector sucked with PBS. After the bone marrow was blown away, impurities were filtered away by a 50 μm filter screen. A red blood cell lysis buffer (3-4 mL) was added into an obtained filtrate. Then, after placement for 5 min, 800 g centrifugation was performed for 5 min to remove the supernatant. The obtained cells were placed into a 1640 culture medium (containing 10% fetal calf serum, 20 ng/mL GMCSF and 10 ng/ml IL4) to be resuspended, and were inoculated into a 6-well plate at an inoculation density of 100000 cells/ml culture medium. The materials were placed into a 37° C. cell incubator containing 5% CO2. Half liquid change was performed once every 2 days. Suspended cells and loose wall attached cells were collected on the seventh day, and were […], and the volume of a culture medium was 100 μL.
Cell transfection: lipid nanoparticles coated with luciferase mRNA were added into a 96-well all-white ELISA plate laid with primary cells. The adding volume of the mRNA lipid nanoparticles in each well was controlled to be 10 μL. Then, the materials were put into a 37° C. incubator containing 5% CO2 for 16 h.
Transfection efficiency detection: 20 μL of a substrate ONE-Glo™ Luciferase was added into each well of a 96-well all-white ELISA plate. After 1 min, detection was performed by a multifunctional or multimode microplate reader. DLin-MC3 was used as a control.

endosome/lysosome = conditions: background statement; cited from earlier work
BMDC primary cells [2] = assay: Luc mRNA LNP transfection on BMDC primary cells (Embodiment 13, Table 3); assay type: cell-based, C57BL/6 mice; conditions: 16 h, ONE-Glo Luciferase
Outline: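 Bone-marrow dendritic cells from female C57BL/6 mice were cultured 7 days with GM-CSF (20 ng/mL) and IL-4 (10 ng/mL). Cells were then exposed to luciferase mRNA LNPs for 16 h at 37° C., 5% CO2. Transfection was read as ONE-Glo luminescence.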

B16-OVA melanoma cells = assay: OVA mRNA LNP vaccine, in-vivo immunity and tumor treatment (Embodiment 15); design: species or system C57BL/6 mice; conditions: B16-OVA tumor-bearing mice, two intramuscular injections of LNP with 1 μg OVA-mRNA, 7 days apart
Description: Preparation method: the amino lipid compounds of the disclosure, DSPC, cholesterol and PEG2000-DMG were mixed according to a mole ratio of 50:10:38.5:1.5 and were dissolved in absolute ethyl alcohol. OVA mRNA was dissolved in a sodium acetate buffer solution (50 nM, pH=4.0). The obtained ethyl alcohol solution and the acetate buffer solution […] were mixed in a micro-fluidic chip according to a volume ratio of 1:3 by using a micro-fluidic preparation system to obtain lipid nanoparticles. Then, dialysis was performed for 6 h under the conditions of 1×PBS and temperature was controlled at 4° C. by using a dialysis cassettes or box (MWCO 20,000). Filtration was performed by a 0.22 μm microporous filtering membrane prior to use. The mass ratio of the amino lipid compound to OVA mRNA was about 10:1.
Animal preparation: 5-6-week-old female C57BL/6 mice with the body weight about 18 to 20 g were selected. The feeding environment was an SPF stage feeding room. Animal tests were strictly performed according to the guide of the national health institute and the animal ethics requirements.
In-vivo delivery: B16-OVA melanoma cells (1.5×10^5) were injected to the outer thighs of the mice through subcutaneous injection. When the tumor grew to 50 mm^3 (on the about 6th or 7th day after tumor inoculation), the mice began to inoculated vaccines, the animals were subjected to twice immunization through intramuscular injection of an LNP preparation containing 1 μg OVA-mRNA. An interval between first and second injections was 7 days. The tumor growth was measured for 3 times every week by a digital display calliper, and a calculation formula was […]. When the tumor size reached 1500 mm^3, the mice received euthanasia. Additionally, 60% of mice (E7C71A9 group) and 40% of mice (E6C71A12 group) respectively reached the complete relieving effect.

Row | Structure (SMILES) | Relative Transfection Efficiency (HeLa cells) | Fluorescence intensity (transfection expression intensity) (BMDC primary cells [1]) | RNA that escapes from the endosome/lysosome (endosome/lysosome) | Luciferase luminescence intensity (BMDC primary cells [2]) [E+ 04] | mice that reached the complete relieving effect (B16-OVA melanoma cells) [%] | result (survival curve, FIG. 4) compared with MC3 group (B16-OVA melanoma cells) | tumor growth speed compared with MC3 group (FIG. 3) (B16-OVA melanoma cells)
1 | CCCCCCCCCCC(CCOC(=O)C(CCCCCC)CCCCCCCC)OC(=O)CCCN(C)C (stereo not shown) [Compound A, 3-((4-(dimethylamino)butanoyl)oxy)tridecyl 2-hexyldecanoate] | 0.62 | 4.9E+04 |  |  |  |  | 
2 | CCCCCCCCCCC(CCCOC(=O)C(CCCCCC)CCCCCCCC)OC(=O)CCCN(C)C (stereo not shown) [Compound B] | 0.45 | 2.5E+04 |  |  |  |  | 
3 | CCCCCCCCCCC(CCCCOC(=O)C(CCCCCC)CCCCCCCC)OC(=O)CCCN(C)C (stereo not shown) [Compound C] | 0.39 | 9.3E+03 |  |  |  |  | 
4 | CCCCC/C=C\C/C=C\CCCCCCCCC(CCCCCCCC/C=C\C/C=C\CCCCC)OC(=O)CCCN(C)C [DLin-MC3, DLin-MC3-DMA] |  |  | 1%-4% |  |  |  | 
5 | CCCCCCCCCCC(COC(=O)C(CCCCCC)CCCCCCCC)OC(=O)CCCN(C)C (stereo not shown) [E7C71A9, 2-((4-(Dimethylamino)Butanoyl)Oxy) Dodecyl 2-Hexyldecanoate] | 2.0 | 8.8E+04 |  | 8.8 | 60 | obviously superior to that of MC3 group | obviously lower than that of MC3 group
